From US11351179B1, “Pharmaceutical compositions and methods for treatment of psychiatric disorders” (LA PharmaTech Inc., priority 2021, dated 2022)

Experiments:
[1] = tested on: mild chronic depression and anxiety induced sleep disorder; experiment: Clinical case: patient with mild chronic depression and anxiety induced sleep disorder treated once daily; format: in vivo, human; conditions: citalopram and lorazepam together for 3 months before the composition
Description: A patient was diagnosed with mild chronic depression and anxiety induced sleep disorder and was treated with citalopram and lorazepam for 3 months. […] Then they were treated with a composition of folic acid (0.19 mg) and azelastine (2 mg) once daily. […] The inventors believe the hypothesis as explained in Example 1 above is applicable here as well. In this case, the composition of two mechanisms of action provided a new solution for treating their chronic depression and insomnia which could not be treated with other options, such traditional SSRIs, NSRIs, benzodiazepines, and the like alone.

MDD and panic disorder = experiment: Clinical case: patient with MDD and panic disorder treated orally once daily; format: in vivo, human; conditions: each drug given for 2 months before the composition
Excerpt: A patient had MDD and panic disorder. […] Because azelastine is approved for the treatment of allergic rhinitis and asthma, and the combination composition of azelastine and folic acid had never been expected to be used to treat patients with depression or anxiety, this dramatic clinical outcome which included a fast reduction of symptoms was unexpected. […] This composition with two mechanisms of action of anti-inflammation would provide a new solution for treating psychiatric diseases which are incurable by other options, such traditional SSRIs, NSRIs, benzodiazepines, and the like alone.

Compound	improvement of symptoms on prior treatment [1]	clinical improvement on prior treatment (MDD and panic disorder)
O=C1Nc2ccc(Cl)cc2C(c2ccccc2Cl)=NC1O (stereo not drawn) [lorazepam]	never improved to the level of their satisfaction	–
O=C1CC2(CCCC2)CC(=O)N1CCCCN1CCN(c2ncccn2)CC1 [buspirone]	–	no significant clinical improvement
CN[C@H]1CC[C@@H](c2ccc(Cl)c(Cl)c2)c2ccccc21 [sertraline]	–	no significant clinical improvement
